According to US9931327B2, “Derivatives of 1-phenyl-2-pyridinyl alkyl alcohols as phosphodiesterase inhibitors” (Chiesi Farmaceutici S.p.A., priority 2011, dated 2018):
pIC50: −log10 of the molar value. Like-named read-outs stand apart in the source and are kept apart here.

Test system: LPS-induced TNF-α release in peripheral blood mononuclear cells (PBMCs)
Assay: In vitro determination of PDE4 inhibitory activity in the PBMCs assay (LPS-induced TNF-α release)
Type: cell-based, human
Conditions: PBMC, human PBMCs, LPS 3 ng/ml, 18 hours, read-out: PDE4 inhibition (IC50, 50% inhibition of LPS-induced TNF-α release)
Procedure, shortened: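 Cryopreserved human PBMCs (10^5 cells/well) pre-incubated 30 min with compound (10^−12 to 10^−6 M or 10^−3 to 10^−7 M), then stimulated with LPS 3 ng/ml for 18 h at 37 °C. TNF-α in medium by ELISA; IC50 as mean ± 95% confidence limits.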

In the case of `CN(C)C(=O)c1cccc(S(=O)(=O)N2CCS[C@H]2C(=O)O[C@@H](Cc2c(Cl)c[n+]([O-])cc2Cl)c2ccc(OC(F)F)c(O)c2)c1` [Compound 263, 3,5-dichloro-4-((S)-2-(4-(difluoromethoxy)-3-hydroxyphenyl)-2-((S)-3-(3-(dimethylcarbamoyl)phenylsulfonyl)thiazolidine-2-carbonyloxy)ethyl)pyridine 1-oxide], the pIC50 (TNF-α by ELISA) was 8.00 to 9.00.

`O=C(O[C@@H](Cc1c(Cl)c[n+]([O-])cc1Cl)c1ccc(OC(F)F)c(OCC2CC2)c1)C1SCCN1S(=O)(=O)c1ccc(F)cc1Cl` (stereo partly drawn) [Compound 68, 3,5-dichloro-4-((2S)-2-(3-(2-chloro-4-fluorophenylsulfonyl)thiazolidine-2-carbonyloxy)-2-(3-(cyclopropylmethoxy)-4-(difluoromethoxy)phenyl)ethyl)pyridine 1-oxide] was tested, and the pIC50 (TNF-α by ELISA) was 9.00 to 10.00.

In the case of `O=C(O[C@@H](Cc1c(Cl)c[n+]([O-])cc1Cl)c1ccc(OC(F)F)c(OCC2CC2)c1)[C@@H]1CCCCN1S(=O)(=O)c1ccc(N2CCOCC2)nc1` [Compound 111, 3,5-dichloro-4-((S)-2-(3-(cyclopropylmethoxy)-4-(difluoromethoxy)phenyl)-2-((S)-1-(6-morpholinopyridin-3-ylsulfonyl)piperidine-2-carbonyloxy)ethyl)pyridine 1-oxide], the pIC50 (TNF-α by ELISA) was 9.00 to 10.00.

`NCCc1ccc(C(=O)N2CCSC2C(=O)O[C@@H](Cc2c(Cl)c[n+]([O-])cc2Cl)c2ccc(OC(F)F)c(OCC3CC3)c2)cc1` (stereo partly drawn) [Compound 22, 4-((2S)-2-(3-(4-(2-aminoethyl)benzoyl)thiazolidine-2-carbonyloxy)-2-(3-(cyclopropylmethoxy)-4-(difluoromethoxy)phenyl)ethyl)-3,5-dichloropyridine 1-oxide] was tested, and the pIC50 (TNF-α by ELISA) was 9.00 to 10.00.

`COc1ccc(S(=O)(=O)N2CCSC2C(=O)O[C@@H](Cc2c(Cl)c[n+]([O-])cc2Cl)c2ccc(OC(F)F)c(OCC3CC3)c2)cc1OC` (stereo partly drawn) [Compound 73, 3,5-dichloro-4-((2S)-2-(3-(cyclopropylmethoxy)-4-(difluoromethoxy)phenyl)-2-(3-(3,4-dimethoxyphenylsulfonyl)thiazolidine-2-carbonyloxy)ethyl)pyridine 1-oxide] was tested, and the pIC50 (TNF-α by ELISA) was > 10.00.

With `NS(=O)(=O)c1cccc(S(=O)(=O)N2CCS[C@H]2C(=O)O[C@@H](Cc2c(Cl)c[n+]([O-])cc2Cl)c2ccc(OC(F)F)c(OCC3CC3)c2)c1` [Compound 91, 3,5-dichloro-4-((S)-2-(3-(cyclopropylmethoxy)-4-(difluoromethoxy)phenyl)-2-((S)-3-(3-sulfamoylphenylsulfonyl)thiazolidine-2-carbonyloxy)ethyl)pyridine 1-oxide] the pIC50 (TNF-α by ELISA) was > 10.00.

`O=C(O[C@@H](Cc1c(Cl)c[n+]([O-])cc1Cl)c1ccc(OC(F)F)c(OCC2CC2)c1)[C@@H]1SCCN1S(=O)(=O)c1ccccc1` [Compound 89, 3,5-dichloro-4-((S)-2-(3-(cyclopropylmethoxy)-4-(difluoromethoxy)phenyl)-2-((S)-3-(phenylsulfonyl)thiazolidine-2-carbonyloxy)ethyl)pyridine 1-oxide] gave a pIC50 (TNF-α by ELISA) of 9.00 to 10.00.

For `CN1CCN(C(=O)c2cccc(S(=O)(=O)N3CCSC3C(=O)O[C@@H](Cc3c(Cl)c[n+]([O-])cc3Cl)c3ccc(OC(F)F)c(OCC4CC4)c3)c2)CC1` (stereo partly drawn) [Compound 130, 3,5-dichloro-4-((2S)-2-(3-(cyclopropylmethoxy)-4-(difluoromethoxy)phenyl)-2-(3-(3-(4-methylpiperazine-1-carbonyl)phenylsulfonyl)thiazolidine-2-carbonyloxy)ethyl)pyridine 1-oxide], the pIC50 (TNF-α by ELISA) was > 10.00.

`CN(C)C(=O)c1cccc(S(=O)(=O)N2CCC[C@H]2C(=O)O[C@@H](Cc2c(Cl)c[n+]([O-])cc2Cl)c2ccc(OC(F)F)c(OCC3CC3)c2)c1` [Compound 54, 3,5-dichloro-4-((S)-2-(3-(cyclopropylmethoxy)-4-(difluoromethoxy)phenyl)-2-((S)-1-(3-(dimethylcarbamoyl)phenylsulfonyl)pyrrolidine-2-carbonyloxy)ethyl)pyridine 1-oxide] was tested, and the pIC50 (TNF-α by ELISA) was > 10.00.

`O=C(O[C@@H](Cc1c(Cl)c[n+]([O-])cc1Cl)c1ccc(OC(F)F)c(OCC2CC2)c1)[C@@H]1SCCN1S(=O)(=O)c1ccoc1` [Compound 96, 3,5-dichloro-4-((S)-2-(3-(cyclopropylmethoxy)-4-(difluoromethoxy)phenyl)-2-((S)-3-(furan-3-ylsulfonyl)thiazolidine-2-carbonyloxy)ethyl)pyridine 1-oxide] was tested, and the pIC50 (TNF-α by ELISA) was > 10.00.

`COc1ccc(S(=O)(=O)N2CCCC[C@H]2C(=O)O[C@@H](Cc2c(Cl)c[n+]([O-])cc2Cl)c2ccc(OC(F)F)c(OCC3CC3)c2)cc1C(=O)N(C)C` [Compound 129, 3,5-dichloro-4-((S)-2-(3-(cyclopropylmethoxy)-4-(difluoromethoxy)phenyl)-2-((S)-1-(3-(dimethylcarbamoyl)-4-methoxyphenylsulfonyl)piperidine-2-carbonyloxy)ethyl)pyridine 1-oxide] was tested, and the pIC50 (TNF-α by ELISA) was > 10.00.

Work on `COc1ccc(C(=O)N2CCSC2C(=O)O[C@@H](Cc2c(Cl)c[n+]([O-])cc2Cl)c2ccc(OC(F)F)c(OCC3CC3)c2)cc1S(=O)(=O)N(C)C` (stereo partly drawn) [Compound 32, 3,5-dichloro-4-((2S)-2-(3-(cyclopropylmethoxy)-4-(difluoromethoxy)phenyl)-2-(3-(3-(N,N-dimethylsulfamoyl)-4-methoxybenzoyl)thiazolidine-2-carbonyloxy)ethyl)pyridine 1-oxide] yielded a pIC50 (TNF-α by ELISA) of 9.00 to 10.00.

Work on `O=C(O[C@@H](Cc1c(Cl)c[n+]([O-])cc1Cl)c1ccc(OC(F)F)c(OCC2CC2)c1)[C@@H]1SCCN1S(=O)(=O)c1ccc(N2CCOCC2)nc1` [Compound 105, 3,5-dichloro-4-((S)-2-(3-(cyclopropylmethoxy)-4-(difluoromethoxy)phenyl)-2-((S)-3-(6-morpholinopyridin-3-ylsulfonyl)thiazolidine-2-carbonyloxy)ethyl)pyridine 1-oxide] yielded a pIC50 (TNF-α by ELISA) of 9.00 to 10.00.

`Cc1ccc(S(=O)(=O)N2CCSC2C(=O)O[C@@H](Cc2c(Cl)c[n+]([O-])cc2Cl)c2ccc(OC(F)F)c(OCC3CC3)c2)c(C)c1` (stereo partly drawn) [Compound 61, 3,5-dichloro-4-((2S)-2-(3-(cyclopropylmethoxy)-4-(difluoromethoxy)phenyl)-2-(3-(2,4-dimethylphenylsulfonyl)thiazolidine-2-carbonyloxy)ethyl)pyridine 1-oxide] showed a pIC50 (TNF-α by ELISA) of 9.00 to 10.00.

`Cn1ccnc1S(=O)(=O)N1CCCC[C@H]1C(=O)O[C@@H](Cc1c(Cl)c[n+]([O-])cc1Cl)c1ccc(OC(F)F)c(OCC2CC2)c1` [Compound 116, 3,5-dichloro-4-((S)-2-(3-(cyclopropylmethoxy)-4-(difluoromethoxy)phenyl)-2-((S)-1-(1-methyl-1H-imidazol-2-ylsulfonyl)piperidine-2-carbonyloxy)ethyl)pyridine 1-oxide] was tested, and the pIC50 (TNF-α by ELISA) was > 10.00.

With `COc1cc([C@H](Cc2c(Cl)c[n+]([O-])cc2Cl)OC(=O)[C@@H]2SCCN2S(=O)(=O)c2cccc(C(=O)N(C)C)c2)ccc1OC(F)F` [Compound 299, 3,5-dichloro-4-((S)-2-(4-(difluoromethoxy)-3-methoxyphenyl)-2-((S)-3-(3-(dimethylcarbamoyl)phenylsulfonyl)thiazolidine-2-carbonyloxy)ethyl)pyridine 1-oxide] the pIC50 (TNF-α by ELISA) was > 10.00.

With `O=C(O[C@@H](Cc1c(Cl)c[n+]([O-])cc1Cl)c1ccc(OC(F)F)c(OCC2CC2)c1)C1CN(S(=O)(=O)c2ccccc2)CCO1` (stereo partly drawn) [Compound 79, 3,5-dichloro-4-((2S)-2-(3-(cyclopropylmethoxy)-4-(difluoromethoxy)phenyl)-2-(4-(phenylsulfonyl)morpholine-2-carbonyloxy)ethyl)pyridine 1-oxide] the pIC50 (TNF-α by ELISA) was 9.00 to 10.00.

Compound `COc1ccc(S(=O)(=O)N2CCC[C@H]2C(=O)O[C@@H](Cc2c(Cl)c[n+]([O-])cc2Cl)c2ccc(OC(F)F)c(OCC3CC3)c2)cc1OC` [Compound 53, 3,5-dichloro-4-((S)-2-(3-(cyclopropylmethoxy)-4-(difluoromethoxy)phenyl)-2-((S)-1-(3,4-dimethoxyphenylsulfonyl)pyrrolidine-2-carbonyloxy)ethyl)pyridine 1-oxide] has a pIC50 (TNF-α by ELISA) of 9.00 to 10.00.

In the case of `O=C(O[C@@H](Cc1c(Cl)c[n+]([O-])cc1Cl)c1ccc(OC(F)F)c(OCC2CC2)c1)C1SCCN1S(=O)(=O)c1ccsc1` (stereo partly drawn) [Compound 85, 3,5-dichloro-4-((2S)-2-(3-(cyclopropylmethoxy)-4-(difluoromethoxy)phenyl)-2-(3-(thiophen-3-ylsulfonyl)thiazolidine-2-carbonyloxy)ethyl)pyridine 1-oxide], the pIC50 (TNF-α by ELISA) was > 10.00.

`O=C(O[C@@H](Cc1c(Cl)c[n+]([O-])cc1Cl)c1ccc(OC(F)F)c(OCC2CC2)c1)[C@@H]1CSCN1` [Compound 11] showed a pIC50 (compounds of formula (II)) of 9.00 to 10.00.

`CN(C)C(=O)c1cccc(S(=O)(=O)N2CCC[C@@H](C(=O)O[C@@H](Cc3c(Cl)c[n+]([O-])cc3Cl)c3ccc(OC(F)F)c(OCC4CC4)c3)C2)c1` [Compound 228] was tested, and the pIC50 (TNF-α by ELISA) was 9.00 to 10.00.

`Nc1ccc(S(=O)(=O)N2CSC[C@H]2C(=O)O[C@@H](Cc2c(Cl)c[n+]([O-])cc2Cl)c2ccc(OC(F)F)c(OCC3CC3)c2)cc1` [Compound 138, 4-((S)-2-((R)-3-(4-aminophenylsulfonyl)thiazolidine-4-carbonyloxy)-2-(3-(cyclopropylmethoxy)-4-(difluoromethoxy)phenyl)ethyl)-3,5-dichloropyridine 1-oxide] was tested, and the pIC50 (TNF-α by ELISA) was 9.00 to 10.00.

`COc1ccc(S(=O)(=O)N2CCCC[C@H]2C(=O)O[C@@H](Cc2c(Cl)c[n+]([O-])cc2Cl)c2ccc(OC(F)F)c(OCC3CC3)c2)cc1OC` [Compound 98, 3,5-dichloro-4-((S)-2-(3-(cyclopropylmethoxy)-4-(difluoromethoxy)phenyl)-2-((S)-1-(3,4-dimethoxyphenylsulfonyl)piperidine-2-carbonyloxy)ethyl)pyridine 1-oxide] was tested, and the pIC50 (TNF-α by ELISA) was 9.00 to 10.00.
